The values that follow are results of earlier work, collected in US8187800B2, “Methods for selecting active agents for cancer treatment” (Precision Therapeutics, Inc., priority 2007, dated 2012).

The series has as its system breast cancer. The conditions noted are these: neoadjuvant therapy in breast cancer patients; 4 cycles FEC, then 4 cycles docetaxel.

As to `CC(=O)O[C@@]12CO[C@@H]1C[C@H](O)[C@@]1(C)C(=O)[C@H](O)C3=C(C)[C@@H](OC(=O)[C@H](O)[C@@H](NC(=O)OC(C)(C)C)c4ccccc4)C[C@@](O)([C@@H](OC(=O)c4ccccc4)[C@H]21)C3(C)C` [docetaxel], the overall clinical response is listed as 75%.
